From patent publication US20110070232A1, “Combination Therapy with an Antitumor Alkaloid” (Pharma Mar, S.A., priority 2008, published 2011)
In brackets after ≈: the same amount, converted by molar mass. Read-outs that look alike come from different tables or passages of the source.

Key:
[1] = system: AGS human gastric carcinoma cell line; test: IC50 determination, MTS assay, 72 h (Example 1); assay type: cell-based; settings: Homo sapiens, 72 hours of drug exposure, read-out: IC50
Procedure: (§1) The human gastric carcinoma cell lines selected for this assay were the following: Hs746T, HGC-27, and AGS cell lines. Hs746T and AGS cell lines were grown in Dulbecco's modified Eagle's medium (DMEM) supplemented with 10% Fetal Bovine Serum (FBS), 1.5 g/L sodium bicarbonate, 4.5 g/L glucose and 4 mM L-glutamine. HGC-27 cell line was grown in Iscove's modified Dulbecco's medium (IMDM) supplemented with 20% FBS and 2 mM L-glutamine.
(§2) The day before plating, the cells were fed with fresh, complete growth media. On the harvest (plating) day, cells were counted by Trypan Blue exclusion staining method.
(§3) Cells were harvested and seeded in 96 well microtiter plates at 10,000 cells density in 150 μL of media and incubated for 24 hours to allow the cells to attach before drug addition. To collect reference data, the MTS assay was done on untreated cells at time 0 (after incubation of cells for 24 hours).
(§4) The cytotoxic effect was measured by the MTS Assay (Tetrazolium), which is a colorimetric method for determining the number of viable cells. After the incubation period (24 hours for the Day 0 plate and 72 hours for the Test and Control plates), 25 μL of MTS+PMS solution was added to each microtiter well and incubated for 4 hours at 37° C. Plates were then removed from incubator and placed on plate shaker for 5 minutes (covered with aluminum foil for protection from light). Optical densities were read at 490 nm on spectrophotometer plate reader.
(§5) IC50 values were calculated from an average of two to four assays for each of the test agents.

[2] = system: HGC-27 human gastric carcinoma cell line; test: IC50 determination, MTS assay, 72 h (Example 1); assay type: cell-based; settings: Homo sapiens, 72 hours of drug exposure, read-out: IC50
Procedure: as §1, §2, §3, §4, §5

[3] = system: Hs746T human gastric carcinoma cell line; test: IC50 determination, MTS assay, 72 h (Example 1); assay type: cell-based; settings: Homo sapiens, 72 hours of drug exposure, read-out: IC50
Procedure: as §1, §2, §3, §4, §5

Hs746T tumors = assay type: in vivo, mice; settings: for % T/C on day 14 / % T/C on day 19 / % T/C on day 22 / % T/C on day 26 / % T/C on day 29 / % T/C on day 32 / % T/C on day 39: PM00104 0.90 IV, DPI 14, 21, 28
Procedure: Female athymic nude mice (Harlan Sprague Dawley, Madison, Wis.) were utilized for all experiments. Animals were housed in ventilated rack caging with food and water ad libitum. The mice were acclimated for at least 5 days prior to tumor implantation with a tumor cell suspension.
The tumor model used in these studies was Hs746T cell line, which was obtained from the ATCC (Manassas, Va.).
Treatments were initiated on DPI 14.
(§6) Tumor size measurements were recorded twice weekly from the treatment initiation until the termination of the study.
(§7) Mean, standard deviation and standard error of the mean were determined for tumor volume for all animal groups at all assessments. Student's t test was performed on tumor volumes at each measurement day, including at the end of the study, to determine whether there were any statistically significant differences between combination treatment groups and single monotherapy treatment groups.

MRI-H-254 tumors = assay type: in vivo, mice
Procedure: Female athymic nude mice (Harlan Sprague Dawley, Madison, Wis.) were utilized for all experiments. Animals were housed in ventilated rack caging with food and water ad libitum. The mice were acclimated for at least 5 days prior to tumor implantation with tumor fragments.
Treatments were initiated on DPI 20.
as §6, §7

[4] = docetaxel 8 IP, oxaliplatin 4 IP mg/kg/day (G4, G6, G8, G10)
[5] = docetaxel 16 IP, oxaliplatin 8 IP mg/kg/day (G2, G3, G5, G7, G9)
[6] = PM00104 0.90 IV, docetaxel 8 IP, oxaliplatin 4 IP mg/kg/day (G4, G6, G8, G10), DPI 20, 27, 34
[7] = PM00104 0.90 IV, docetaxel 16 IP, oxaliplatin 8 IP mg/kg/day (G2, G3, G5, G7, G9), DPI 20, 27, 34

## CC(=O)O[C@@]12CO[C@@H]1C[C@H](O)[C@@]1(C)C(=O)[C@H](O)C3=C(C)[C@@H](OC(=O)[C@H](O)[C@@H](NC(=O)OC(C)(C)C)c4ccccc4)C[C@@](O)([C@@H](OC(=O)c4ccccc4)[C@H]21)C3(C)C [Docetaxel, docetaxel]
[1]
  IC50: 1.99 µg/mL (≈ 2.46 µM)
[2]
  IC50: 6.54 µg/mL (≈ 8.1 µM)
[3]
  IC50: 44.2 µg/mL (≈ 54.7 µM)
Hs746T tumors; [4]
  % T/C on day 14: 100.8%
  % T/C on day 19: 49.0%
  % T/C on day 22: 41.6%
  % T/C on day 26: 32.5%
  % T/C on day 29: 29.4%
  % T/C on day 32: 39.4%
  % T/C on day 39: 55.1%
Hs746T tumors; [5]
  % T/C on day 14: 100.3%
  % T/C on day 19: 33.6%
  % T/C on day 22: 21.3%
  % T/C on day 26: 7.2%
  % T/C on day 29: 3.5%
  % T/C on day 32: 1.5%
  % T/C on day 39: −0.6%
Hs746T tumors; day 14, PM00104 0.9 and docetaxel 8 mg/kg/day
  % Inhibition: −0.8%
Hs746T tumors; day 14, PM00104 0.9 and docetaxel 16 mg/kg/day
  % Inhibition: −0.3%
Hs746T tumors; day 19, PM00104 0.9 and docetaxel 8 mg/kg/day
  % Inhibition: 51.0%
Hs746T tumors; day 19, PM00104 0.9 and docetaxel 16 mg/kg/day
  % Inhibition: 66.4%
Hs746T tumors; day 22, PM00104 0.9 and docetaxel 8 mg/kg/day
  % Inhibition: 58.4%
Hs746T tumors; day 22, PM00104 0.9 and docetaxel 16 mg/kg/day
  % Inhibition: 78.7%
Hs746T tumors; day 26, PM00104 0.9 and docetaxel 8 mg/kg/day
  % Inhibition: 67.5%
Hs746T tumors; day 26, PM00104 0.9 and docetaxel 16 mg/kg/day
  % Inhibition: 92.8%
Hs746T tumors; day 29, PM00104 0.9 and docetaxel 8 mg/kg/day
  % Inhibition: 70.6%
Hs746T tumors; day 29, PM00104 0.9 and docetaxel 16 mg/kg/day
  % Inhibition: 96.5%
Hs746T tumors; day 32, PM00104 0.9 and docetaxel 8 mg/kg/day
  % Inhibition: 60.6%
Hs746T tumors; day 32, PM00104 0.9 and docetaxel 16 mg/kg/day
  % Inhibition: 98.5%
Hs746T tumors; day 39, PM00104 0.9 and docetaxel 8 mg/kg/day
  % Inhibition: 44.9%
Hs746T tumors; day 39, PM00104 0.9 and docetaxel 16 mg/kg/day
  % Inhibition: 100.6%
MRI-H-254 tumors; [6]
  % T/C on day 20: 97.7%
  % T/C on day 23: 122.8%
  % T/C on day 27: 93.1%
  % T/C on day 30: 102.6%
  % T/C on day 33: 114.1%
  % T/C on day 36: 119.2%
  % T/C on day 40: 120.1%
  % T/C on day 48: 97.3%
MRI-H-254 tumors; [7]
  % T/C on day 20: 101.4%
  % T/C on day 23: 115.4%
  % T/C on day 27: 90.9%
  % T/C on day 33: 115.8%
  % T/C on day 36: 108.4%
  % T/C on day 40: 100.4%
  % T/C on day 48: 76.7%
MRI-H-254 tumors; day 20, PM00104 0.9 and docetaxel 8 mg/kg/day
  % Inhibition: 2.3%
MRI-H-254 tumors; day 20, PM00104 0.9 and docetaxel 16 mg/kg/day
  % Inhibition: −1.4%
MRI-H-254 tumors; day 23, PM00104 0.9 and docetaxel 8 mg/kg/day
  % Inhibition: −22.8%
MRI-H-254 tumors; day 23, PM00104 0.9 and docetaxel 16 mg/kg/day
  % Inhibition: −15.4%
MRI-H-254 tumors; day 27, PM00104 0.9 and docetaxel 8 mg/kg/day
  % Inhibition: 6.9%
MRI-H-254 tumors; day 27, PM00104 0.9 and docetaxel 16 mg/kg/day
  % Inhibition: 9.1%
MRI-H-254 tumors; day 30, PM00104 0.9 and docetaxel 8 mg/kg/day
  % Inhibition: −2.6%
MRI-H-254 tumors; day 30, PM00104 0.9 and docetaxel 16 mg/kg/day
  % Inhibition: −17.1%
MRI-H-254 tumors; day 33, PM00104 0.9 and docetaxel 8 mg/kg/day
  % Inhibition: −14.1%
MRI-H-254 tumors; day 33, PM00104 0.9 and docetaxel 16 mg/kg/day
  % Inhibition: −15.8%
MRI-H-254 tumors; day 36, PM00104 0.9 and docetaxel 8 mg/kg/day
  % Inhibition: −19.2%
MRI-H-254 tumors; day 36, PM00104 0.9 and docetaxel 16 mg/kg/day
  % Inhibition: −8.4%
MRI-H-254 tumors; day 40, PM00104 0.9 and docetaxel 8 mg/kg/day
  % Inhibition: −20.1%
MRI-H-254 tumors; day 40, PM00104 0.9 and docetaxel 16 mg/kg/day
  % Inhibition: −0.4%
MRI-H-254 tumors; day 48, PM00104 0.9 and docetaxel 8 mg/kg/day
  % Inhibition: 2.7%
MRI-H-254 tumors; day 48, PM00104 0.9 and docetaxel 16 mg/kg/day
  % Inhibition: 23.3%
